Measurements from patent US6071882A, “Means for treating prostate hypertrophy and prostate cancer” (ASTA Medica AG, priority 1998, dated 2000).
Non-standard residues stand in square brackets, D forms with d. Residues, ends and D or L forms follow the SMILES beside them. dPhe(4-Cl) = N[C@H](Cc1ccc(Cl)cc1)C(=O)O; d2Nal = N[C@H](Cc1ccc2ccccc2c1)C(=O)O; dCit = NC(=O)NCCC[C@@H](N)C(=O)O; d3Pal = N[C@H](Cc1cccnc1)C(=O)O

Tests used:
BPH patients [1] = conditions: cited from earlier work
[2] = tested on: Prostate carcinoma patients; conditions: 500 μg every 12 hours for 6 weeks; cited from earlier work
BPH patients [3] = assay: Clinical therapy of BPH with Cetrorelix; format: in vivo
Procedure: Cetrorelix is administered in a dose of 0.5 mg to 2 mg daily for 4 to 8 weeks for the therapy of BPH. A dose of 5 mg to 30 mg, dispensed once per week or every 10 days also over a time period of 4 to 8 weeks as well as one every two weeks or one injection per month of 20 mg to 60 mg can also decisively improve the clinical symptoms and signs. […] The prostate volume decreases by 20 to 40% during the treatment time of 4 to 8 weeks. […] In addition, at least 30% of the patients achieve an improvement of the urine flow of 6 ml/sec with this therapy. This is almost equivalent to an improvement like that associated with the golden standard operation, and in considerably shorter time. […] These clinical benefits continue for at least 3 to 6 months after therapy. This allows a long-term therapy of BPH with only an intermittent treatment of 2 to max. 4 injection cycles over 4 to 8 weeks.

**Q.** For `CC(=O)N[C@H](Cc1ccc2ccccc2c1)C(=O)N[C@H](Cc1ccc(Cl)cc1)C(=O)N[C@H](Cc1cccnc1)C(=O)N[C@@H](CO)C(=O)N[C@@H](Cc1ccc(O)cc1)C(=O)N[C@H](CCCNC(N)=O)C(=O)N[C@@H](CC(C)C)C(=O)N[C@@H](CCCNC(=N)N)C(=O)N1CCC[C@H]1C(=O)N[C@H](C)C(N)=O` [Cetrorelix] (Ac-[d2Nal][dPhe(4-Cl)][d3Pal]SY[dCit]LRP[dA]-NH2), which “testosterone levels during treatment” value (BPH patients [1]; 500 μg every 12 hours for 4 weeks, no castration values during last three weeks) is on record?
**A.** fluctuated at subnormal levels

**Q.** And the “testosterone levels, initially” value (BPH patients [1]; 500 μg every 12 hours, all patients (BPH and prostate carcinoma), initially)?
**A.** lowering in testosterone levels to a castration level

**Q.** What about the “overall condition of the patient” value [2] of the same compound?
**A.** considerable improvement

**Q.** What about the testosterone decrease (BPH patients [3]; above those levels associated with castration) of the same compound?
**A.** Submaximal decreases of testosterone occur

**Q.** And the “limitations in sexual performance” value (BPH patients [3]; human, in vivo)?
**A.** No limitations in sexual performance are observed

**Q.** What about the quality of life (BPH patients [3]; human, in vivo) of the same compound?
**A.** significant improvements

**Q.** And the “increase of the peak flow of the urine” value (BPH patients [3]; treatment of 4 to 8 weeks)?
**A.** approximately 3 ml/sec

**Q.** And the “patients achieving an improvement of the urine flow of 6 ml/sec” value (BPH patients [3]; treatment of 4 to 8 weeks)?
**A.** at least 30%
